# Measured values published in patent US20240358731A1, “SUMO PATHWAY AS AN OXYGEN SENSOR RELEVANT TO THE PATHOPHYSIOLOGY OF PULMONARY ARTERY HYPERTENSION AND CARDIAC ARRHYTHMIA” (Northeastern University, priority 2023, published 2024).
# Substitutions are numbered along the chain they refer to.
# Assays:
# [1] = molecular target: T1, Kir2.1-mediated IK1 current (Rattus norvegicus, UniProt Q64273); experiment: Whole-cell patch-clamp of IK1 in rat ventricular cardiomyocytes under acute hypoxia; format: cell-based
# T1 construct: endogenous in cells; host or cells: rat ventricular cardiomyocytes (RVCMs)
# T1 sequence (Q64273 1-427): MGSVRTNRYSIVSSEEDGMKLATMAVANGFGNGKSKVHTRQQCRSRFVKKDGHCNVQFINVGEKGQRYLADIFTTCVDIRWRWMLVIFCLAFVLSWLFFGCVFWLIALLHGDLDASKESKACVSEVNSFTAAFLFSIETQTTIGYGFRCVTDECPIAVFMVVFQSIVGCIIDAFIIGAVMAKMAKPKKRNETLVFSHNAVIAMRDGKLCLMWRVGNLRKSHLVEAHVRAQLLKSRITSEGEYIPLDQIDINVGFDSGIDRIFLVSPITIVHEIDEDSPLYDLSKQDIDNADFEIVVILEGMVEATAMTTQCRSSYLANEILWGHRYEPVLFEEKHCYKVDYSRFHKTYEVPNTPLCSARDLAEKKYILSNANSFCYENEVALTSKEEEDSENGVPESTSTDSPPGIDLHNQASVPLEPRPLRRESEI
# Procedure: IK1 in rat ventricular cardiomyocytes studied by whole-cell patch-clamp. Hypoxia was a drop in O2 from ambient levels to 2%, measured at the cell. The time-course of hypoxic-inhibition was studied by recording the magnitude of IK1 every second. Cells were studied with the following pipette solutions: control, SUMO1 (1 μM) or SENP1 (2 μM). IK1 was blocked by the addition of 3 mM Ba^2+. […] Left, representative current sweeps; right, a representative time course showing the kinetics of hypoxic inhibition in cardiomyocytes studied with control pipette solution. The inhibition is precluded by including SENP1 (2 μM, magenta) in the recording pipette. The reverse ramp recording protocol is inset. […] SENP1 augments IK1 and protects the current from hypoxia. Data are from 8-10 RVCMs per group, **** P<0.0001, paired, two-tailed Student's […]. […] Representative data are shown with DAPI labeled nuclei and PLA interactions. Summary data are obtained from multiple experiments each with multiple fields of view containing 20-30 nuclei. The scale bar is 10 μm.
# (§1) To knockdown Kir2.1 expression, RVCMs were transduced with lentiviral particles carrying cGFP and shRNA targeting KCNJ2-mRNA for the channel. Kir2.1 knockdown cells (Kir2.1kd-CMs) were identified by expression of cGFP. Cells were studied with control pipette solution, or with pipette solutions containing purified SUMO1 (1 μM) or SENP1 (2 μM). Where indicated, the control pipette solution contained diC8 PIP2. Paired patch-clamp data were analyzed by Students t-test; ***, P<0.01. […] Kir2.1kd-CMs are identified by expression of GFP (inset, scale bar=10 μm). […] The arrow indicates the change in current-magnitude between exposure to ambient O2 and 2% O2 in the same cell. Right, Concentration-response curve showing that including diC8-PIP2 in the pipette opposes hypoxic-inhibition of IK1 in control RVCMs and RVCMs expressing the scrambled shRNA. The hypoxic-response is diminished in Kir2.1kd-CMs. Data are mean±s.d. for 7-8 cells per condition. […] Current inhibition is diminished when SENP1 is included in the recording pipette and is not observed when SUMO-insensitive Kir2.1-K49Q channels are studied. Data are mean±s.d. for 6 cells per condition.
# Hypoxic-inhibition of Kir2.1 in cardiomyocytes via SUMOylation. We studied the effects of acute hypoxia on IK1 in rat ventricular cardiomyocytes (RVCMs) by whole cell patch-clamp recording. […] Both the hypoxia-sensitive and insensitive components of the current were blocked by Ba^2+ (3 mM), consistent with the known role of Kir2 channels in mediating IK1 (FIG. 1a). To determine if SUMOylation mediates the hypoxic inhibition of IK1 we introduced purified SENP1 (2 μM) to the cytosol via the recording pipette. […] Both the SUMO1 and hypoxia-mediated inhibition of IK1 remained stable throughout the remainder of the experiment (up to 10 mins). […] Next, we visualized and quantified the interactions between native Kir2.1 and SUMO1 in RVCMs using the proximity-ligation association (PLA) assay with antibodies we validated in heterologous cells by Western blot. […] The validated Kir2 antibodies were paired with SUMO1 antibodies that we have tested and utilized before. Under control conditions, interactions were observed between Kir2.1 and SUMO1, but not between Kir2.2 or Kir2.3 and SUMO1. […] Although cardiomyocytes are typically cultured at 21% O2, the O2-level in the myocardium is estimated to be in the range of 5-10% O2, under physiological conditions.
# Hypoxic-inhibition of IK1/Kir2.1 is reduced by diC8-PIP2 in a concentration-dependent manner. We have shown that adding the exogenous, soluble PIP2 analog diC8-PIP2 into the patch-pipette opposes hypoxic-inhibition of IK1 (FIG. 4). […] As before, the effects of hypoxia were ameliorated by SENP1 (2 μM) and were not observed in the SUMO and hypoxia insensitive Kir2.1-K49Q channels (FIG. 4D).
# [2] = molecular target: Ubc9 (Homo sapiens, UniProt P63279); details: cited from earlier work
# [3] = molecular target: T2, SUMO activating enzyme (SAE) (Homo sapiens, UniProt Q9UBE0+Q9UBT2); details: cited from earlier work
# T2 sequence (Q9UBE0 1-346): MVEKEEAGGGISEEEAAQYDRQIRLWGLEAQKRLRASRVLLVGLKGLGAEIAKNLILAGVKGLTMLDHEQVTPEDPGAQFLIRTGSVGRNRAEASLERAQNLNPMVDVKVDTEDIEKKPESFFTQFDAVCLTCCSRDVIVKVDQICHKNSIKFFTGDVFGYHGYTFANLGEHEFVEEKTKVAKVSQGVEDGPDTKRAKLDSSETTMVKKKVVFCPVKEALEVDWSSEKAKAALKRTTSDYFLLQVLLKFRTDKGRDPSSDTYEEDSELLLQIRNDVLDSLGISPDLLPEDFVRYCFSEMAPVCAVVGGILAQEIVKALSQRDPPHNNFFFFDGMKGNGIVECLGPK
# T2 sequence (Q9UBT2 1-640): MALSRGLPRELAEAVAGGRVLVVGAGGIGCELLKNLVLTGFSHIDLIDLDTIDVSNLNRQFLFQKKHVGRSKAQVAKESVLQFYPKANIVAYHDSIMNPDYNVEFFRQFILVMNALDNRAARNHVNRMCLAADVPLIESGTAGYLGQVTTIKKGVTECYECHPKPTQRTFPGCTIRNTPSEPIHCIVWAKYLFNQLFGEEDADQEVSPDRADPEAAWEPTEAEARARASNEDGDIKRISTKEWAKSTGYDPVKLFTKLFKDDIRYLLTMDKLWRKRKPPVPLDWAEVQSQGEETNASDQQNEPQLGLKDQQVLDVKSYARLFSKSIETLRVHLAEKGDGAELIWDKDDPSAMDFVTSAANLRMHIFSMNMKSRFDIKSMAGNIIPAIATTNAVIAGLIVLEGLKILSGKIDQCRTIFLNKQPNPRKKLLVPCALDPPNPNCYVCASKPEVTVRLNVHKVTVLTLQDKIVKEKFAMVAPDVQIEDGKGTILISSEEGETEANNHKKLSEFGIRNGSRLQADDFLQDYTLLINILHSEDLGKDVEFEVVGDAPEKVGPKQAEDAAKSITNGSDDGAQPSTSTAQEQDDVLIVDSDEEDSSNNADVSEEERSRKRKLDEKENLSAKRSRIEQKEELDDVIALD
# [4] = system: E1 and E2; details: cited from earlier work
# [5] = molecular target: T3, Kir2.1 channels (Homo sapiens, UniProt P63252); experiment: Whole-cell patch-clamp of heterologous Kir2.1 channels in HEK293T cells under hypoxia; format: cell-based; details: agent in recording pipette (SENP1 2 μM)
# T3 construct: expressed in transfected cells; host or cells: HEK293T
# T3 sequence (P63252 1-427): T1 sequence (Q64273 1-427) with S119G, C336Y, E388D, S402T, G405D
# Procedure: as §1
# Hypoxic-inhibition of IK1/Kir2.1 is reduced by diC8-PIP2 in a concentration-dependent manner. We have shown that adding the exogenous, soluble PIP2 analog diC8-PIP2 into the patch-pipette opposes hypoxic-inhibition of IK1 (FIG. 4). […]
# [6] = system: SUMOylation; details: cited from earlier work
# [7] = molecular target: T4, Kir2.4 (Homo sapiens, UniProt Q9UNX9); experiment: Whole-cell patch-clamp of Kir2.4 in HEK293 cells with SUMO1 or SENP1 in the recording pipette; format: cell-based; design: expressed in transfected cells; details: 1 nM in pipette; 140 mM bath K+; within one-minute of breakthrough
# T4 sequence (Q9UNX9 1-436): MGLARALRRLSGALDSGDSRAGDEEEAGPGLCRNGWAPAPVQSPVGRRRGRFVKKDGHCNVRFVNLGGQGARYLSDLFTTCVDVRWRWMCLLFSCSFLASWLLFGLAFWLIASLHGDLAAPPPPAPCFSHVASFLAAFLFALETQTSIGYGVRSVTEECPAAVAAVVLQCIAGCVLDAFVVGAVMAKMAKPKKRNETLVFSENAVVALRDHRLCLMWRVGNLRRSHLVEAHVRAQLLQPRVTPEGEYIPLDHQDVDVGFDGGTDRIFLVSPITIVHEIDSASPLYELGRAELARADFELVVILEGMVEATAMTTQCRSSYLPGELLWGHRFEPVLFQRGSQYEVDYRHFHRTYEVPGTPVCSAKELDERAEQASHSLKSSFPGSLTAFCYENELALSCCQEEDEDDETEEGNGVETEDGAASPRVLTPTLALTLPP
# Procedure: Currents were measured at −80 mV in 140 mM external K+.
# Similarly, currents were no longer enhanced by SENP1.
# SUMOylation regulates Kir2.4 channels in mammalian cells. Next, we tested if SUMO could regulate Kir2.4 channels in mammalian cells. Kir2.4 channels were transiently expressed in HEK293 cells and studied in whole-cell mode with 140 mM bath [K]^+, using a ramp protocol from −80 to +80 mV. Purified SUMO1 or SENP1 peptide were introduced via the recording pipette. At 1 nM, SUMO1, but not heat-denatured SUMO1, inhibited Kir2.4 currents by ˜40 and 60%, respectively, within one-minute of breakthrough. In contrast, 1 nM SENP1 increased the current by ˜50% (FIG. 7).
# The PIP2-dependence of SUMO-regulation. Using the 5-ptaseOCRL system, we depleted PIP2 in HEK293 cells expressing Kir2.4 and studied currents with 1 nM SUMO1, or SENP1 in the recording pipette. When currents were recorded after 5-min activation of the optogenetic probe, 5-ptaseOCRL, the inhibitory effect of 1 nM SUMO1 on Kir2.4 was reduced from ˜40% to ˜7% (FIG. 9). Current augmentation observed with SENP1 in the pipette was reduced from […] to ˜6%. These preliminary data support the conclusion that SUMO-regulation of Kir2.4 channels is PIP2-dependent.
# Sequence of Ubc9 (P63279 whole entry): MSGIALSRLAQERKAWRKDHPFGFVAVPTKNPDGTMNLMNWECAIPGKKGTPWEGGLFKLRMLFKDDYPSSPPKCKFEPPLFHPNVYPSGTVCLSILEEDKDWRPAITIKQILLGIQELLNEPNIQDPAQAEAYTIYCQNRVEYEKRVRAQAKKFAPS
compound,measurement,setting,value
[Ba+2] [Ba^2+],block of IK1 (hypoxia-sensitive and insensitive components),[1]; 3 mM,blocked
O=c1cc(-c2ccc(O)c(O)c2O)oc2ccccc12 [Compound 2-D08],Ubc9 (SUMO-E2) inhibition,[2],inhibits Ubc9 by preventing the transfer of SUMO from Ubc9 to the substrate
c1coc(-c2cc(CNc3ncnc4sc5cnccc5c34)no2)c1 [Compound 22],selectivity for the SUMOylation pathway,[2],modest selectivity for the SUMOylation pathway
same,formation of the E1-SUMO complex,[3],unable to block formation of the E1-SUMO complex
Cc1cc(NC(=O)c2ccc(S(=O)(=O)N3CCC(C)CC3)cc2)ccc1NC(=O)Cn1cccn1 [Compound 26],formation of the SUMO-E2 complex,[2],inhibited formation of the SUMO-E2 complex
C[C@@H](C(=O)Nc1ccc(NC(=O)c2ccc(C(=O)c3ccccc3)cc2)cc1)n1cccn1 [Compound 27],formation of the SUMO-E2 complex,[2],inhibited formation of the SUMO-E2 complex
COC1=C(N)C(=O)c2[nH]cc(CO)c2C1=N [Compound 61],ROS generation and E1/E2 crosslinking,[4],generated ROS and subsequent E1 and E2 crosslinking
CCCCCCCC(=O)OC[C@H](COP(=O)(O)O[C@@H]1[C@H](O)[C@H](O)[C@@H](OP(=O)(O)O)[C@H](OP(=O)(O)O)[C@H]1O)OC(=O)CCCCCCC [diC8-PIP2],hypoxic inhibition of IK1,"[1]; 100 μM diC8-PIP2 in pipette, wild-type RVCMs, ~40% without",~15%
same,effect on hypoxic inhibition of IK1,"[1]; ambient O2 to 2% O2, agent in pipette (SENP1 2 μM, SUMO1 1 μM, diC8-PIP2) or pretreatment (TAK981)",diminished the hypoxic-inhibition of IK1 in a concentration-dependent manner
same,effect on hypoxic inhibition of Kir2.1 channels,[5],concentration-dependent reduction in hypoxic inhibition
CSC1=C(N)C(=O)c2[nH]cc(CO)c2C1=N [macrophilone A],ROS generation and E1/E2 crosslinking,[4],generated ROS and subsequent E1 and E2 crosslinking
same,SUMOylation inhibition,[6],demonstrated SUMOylation inhibitory activity through formation of ROS
CO/C(=C/C(=O)O)[C@H]1c2cc3ccc(-c4ccc5cc6c(c(O)c5c4O)C(=O)C[C@@](C)(O)[C@H]6/C(=C\C(=O)O)OC)c(O)c3c(O)c2C(=O)C[C@@]1(C)O [spectomycin B1],Ubc9 (SUMO-E2) inhibition,[2],inhibitors of SUMO-E2
chaetochromin A,Ubc9 (SUMO-E2) inhibition,[2],inhibitors of SUMO-E2
"heat-denatured SUMO1: heat-denatured SUMO1 peptide, control",inhibition of Kir2.4 currents,[7],not
viomellein,Ubc9 (SUMO-E2) inhibition,[2],inhibitors of SUMO-E2
